Laboratory results as given in US11312690B2, “Compounds, compositions, methods for treating diseases, and methods for preparing compounds” (UNIVERSITY OF LOUISVILLE RESEARCH FOUNDATION, INC., priority 2015, dated 2022).
pIC50: −log10 of the molar value.

Legend:
[1] = tested on: D283 Med (Medulloblastoma); test: Tumorigenic phenotype in vitro, Ras driven tumor cell line; type: cell-based; details: data not shown
Source text: (§1) (ATCC® HTB-75™)(ovarian cancer); D283 Med (ATCC® HTB-185™) (Medulloblastoma); A549 (ATCC® CCL-185™) (lung cancer); and LNCaP clone FGC (ATCC® CRL1740™) (prostate cancer).

[2] = tested on: LNCaP clone FGC (prostate cancer); test: as above; type: cell-based; details: data not shown
Source text: as §1

A549 (lung cancer) = test: as above; type: cell-based; details: data not shown
Source text: as §1

[3] = molecular target: T1, interaction of K-Ras with RGL2 (Homo sapiens, UniProt O15211); test: Ras/RalGEF binding, immunoprecipitation and immunoblot from co-transfected HEK-293 cells; details: 10 μM, HA K-Ras 12v and GFP-RGL2, IP/IB, FIG. 3B
T1 construct: expressed in transfected cells; host or cells: HEK-293
T1 sequence (O15211 1-777): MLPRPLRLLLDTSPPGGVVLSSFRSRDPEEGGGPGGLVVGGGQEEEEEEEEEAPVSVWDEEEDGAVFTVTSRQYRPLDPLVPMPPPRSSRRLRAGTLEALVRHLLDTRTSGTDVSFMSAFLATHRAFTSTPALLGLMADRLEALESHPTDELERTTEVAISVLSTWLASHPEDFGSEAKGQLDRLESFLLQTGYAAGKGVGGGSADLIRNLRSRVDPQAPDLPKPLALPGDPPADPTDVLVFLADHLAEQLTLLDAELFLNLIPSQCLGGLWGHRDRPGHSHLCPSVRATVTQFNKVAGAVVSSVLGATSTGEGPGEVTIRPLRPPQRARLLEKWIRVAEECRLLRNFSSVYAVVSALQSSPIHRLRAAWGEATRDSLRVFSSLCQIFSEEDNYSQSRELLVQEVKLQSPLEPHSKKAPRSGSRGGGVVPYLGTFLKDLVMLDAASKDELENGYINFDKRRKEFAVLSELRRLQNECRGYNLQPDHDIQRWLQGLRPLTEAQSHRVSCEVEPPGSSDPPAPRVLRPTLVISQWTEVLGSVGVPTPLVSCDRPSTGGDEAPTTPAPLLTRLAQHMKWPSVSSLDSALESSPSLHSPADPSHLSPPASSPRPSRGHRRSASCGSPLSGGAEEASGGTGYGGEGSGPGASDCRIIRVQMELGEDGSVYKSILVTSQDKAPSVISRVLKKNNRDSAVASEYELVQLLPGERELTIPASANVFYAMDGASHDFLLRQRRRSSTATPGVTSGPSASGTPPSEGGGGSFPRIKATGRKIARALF

Ral = test: Endogenous Ral activation in cells with endogenous hyper-activated Ras (RalBP1 pull down kit); type: cell-based; details: 10 μM, untransfected cells, FIG. 4
Experimental: Specific Inhibition of endogenous Ras/RalGEF signaling. FIG. 4. Specific suppression of Ral activation by some compounds of Formula (I). Cells with endogenous hyper-activated Ras were assayed for endogenous Ral activation in the presence or absence of inhibitor (10 μM) using a Cell Biolabs (SanDiego Calif.) kit. Compound I-1 was dissolved in DMSO; DMSO serves as the carrier negative control. IP is immunoprecipitation. IB is immunoblot. Cell lysates were then assayed for the levels of MAPK pathway activation using a phosphoERK antibody. They were the same. Actin is a loading control.
RalGEFs drive Ral into the active, GTP bound form so it can bind its effector RalBP1. […] Commercially available kits available from several vendors use RalBP1 attached to beads as an affinity reagent specific to the active form of Ral. By measuring the level of activated Ral and comparing it to the total levels of Ral, it is possible to measure the state of endogenous Ral activation. We assayed untransfected cells containing endogenous hyper-activated Ras for the effects of compound I-1 treatment on endogenous levels of active Ral levels.

MiaPaCa-2 = test: Soft agar colony formation; type: cell-based, human
Experimental: FIG. 1. Effects of some compounds of Formula (I) on RalGEF inhibitor on soft agar growth and normal growth in 2D of pancreatic carcinoma cell lines. In FIGS. 1A and 1B, Panc-1 (ATCC® CRL-1469™) and MiaPaCa-2 (ATCC® CRL-1420™) mutant Ras containing pancreatic tumor cell lines were plated in soft agar in the presence of 10 μM or 0.9 μM of compound I-1 and scored for the formation of colonies. In FIGS. 1C and 1D, compound I-1 was then tested for the ability to inhibit cell growth on the same cell lines under normal 2D growth conditions on plastic. “0” is the carrier. Cells were seeded at the same density and scored after two weeks in culture.
Human pancreatic tumor cell lines MiaPaca-2 and Panc-1 contain activated K-Ras and were used in the initial screen to identify compound I-1. Soft agar colony formation remains an established in vitro assay to predict tumorigenicity and was used to predict tumorigenicity for compound I-1.
Several other compounds were tested against the Mia Paca-2 cell line using the soft agar colony formation in vitro assay in two experiments. For each table, DMSO was used as a control and, as such, within each table, the DMSO colonies are the measure against which each measurement in the corresponding table is compared.

[4] = Preliminary in vivo toxicity; set-up: species or system mice; details: 25 mg/kg, ip injection over 2 weeks, data not shown

## COc1cccc(CNc2nc(CN(C)Cc3cccc(OC)c3)nc3sc(C)c(C)c23)c1 [Compound I-1]
[1]
  tumorigenic phenotype in vitro: blocks the tumorigenic phenotype in vitro
[2]
  tumorigenic phenotype in vitro: blocks the tumorigenic phenotype in vitro
A549 (lung cancer)
  tumorigenic phenotype in vitro: blocks the tumorigenic phenotype in vitro
[3]
  inhibition of RGL2 (Ras/RGL2 interaction): also inhibited RGL2
Ral
  levels of endogenous active Ral (GTP bound): suppressed the levels of endogenous active Ral
MiaPaCa-2; 10 μM, FIG. 1B
  ability of the cells to grow in soft agar: almost completely blocked
MiaPaCa-2; 10 μM, Table 2 experiment, DMSO control 182 ± 7 colonies
  Colonies in agar: 0 ± 0
MiaPaCa-2; 10 μM, Table 3 experiment, DMSO control 1686 ± 114 colonies
  Colonies in agar: 12 ± 1
MiaPaCa-2; FIG. 1B
  tumorigenic phenotype in vitro: blocks the tumorigenic phenotype in vitro at low μM or sub μM levels
MiaPaCa-2; Homo sapiens, MIA PaCa-2, read-out: IC50 (concentration that inhibits 50% of colony formation)
  pIC50: > 6.00
[4]
  deleterious effect on mice (behavior, weight): no obvious deleterious effect
